Converted amounts (≈) assume the structure as drawn.
What follows are compounds tested on Mycobacterium tuberculosis (assay: Potency index, ratio of streptomycin MIC to compound MIC for Mycobacterium tuberculosis H37Rv). Conditions: not given.
Assay type: functional
With `Cc1cc(C)c2c(Cn3cc(CSc4nc5ccccc5[nH]4)nn3)cc(=O)oc2c1` the Ratio was 3. `Cc1ccc2c(Cn3cc(CSc4nc5ccccc5[nH]4)nn3)cc(=O)oc2c1C` showed a Ratio of 3.

What follows are compounds tested on Mycobacterium tuberculosis (assay: Antituberculosis activity against Mycobacterium tuberculosis H37Rv after 5 days by MABA method). Conditions: 120 h.
Assay type: functional
`O=c1cc(Cn2cc(CSc3nc4ccccc4[nH]3)nn2)c2ccc3ccccc3c2o1` showed an MIC of 28.4 µM (≈ 12.5 µg/mL). `O=c1cc(Cn2cc(CSc3nc4ccccc4[nH]3)nn2)c2ccc(Cl)cc2o1` gave an MIC of 7.3 µM (≈ 3.09 µg/mL). Compound `COc1ccc2oc(=O)cc(Cn3cc(CSc4nc5ccccc5[nH]4)nn3)c2c1` has an MIC of 29.8 µM (≈ 12.5 µg/mL). `Cc1cccc2c(Cn3cc(CSc4nc5ccccc5[nH]4)nn3)cc(=O)[nH]c12` showed an MIC of 7.7 µM (≈ 3.1 µg/mL). `Cc1ccc2oc(=O)cc(Cn3cc(CSc4nc5ccccc5[nH]4)nn3)c2c1` gave an MIC of 7.7 µM (≈ 3.11 µg/mL). In the case of `O=c1cc(Cn2cc(CSc3nc4ccccc4[nH]3)nn2)c2ccccc2[nH]1`, the MIC is reported as 32.2 µM (≈ 12.5 µg/mL). For `O=c1cc(Cn2cc(CSc3nc4ccccc4[nH]3)nn2)c2cc(Cl)ccc2[nH]1`, the MIC was 29.6 µM (≈ 12.5 µg/mL). `Cc1cc(C)c2c(Cn3cc(CSc4nc5ccccc5[nH]4)nn3)cc(=O)oc2c1` showed an MIC of 3.8 µM (≈ 1.59 µg/mL). Work on `O=c1cc(Cn2cc(CSc3nc4ccccc4[nH]3)nn2)c2ccc(Cl)cc2[nH]1` yielded an MIC of 14.8 µM (≈ 6.26 µg/mL). `Cc1ccc2c(Cn3cc(CSc4nc5ccccc5[nH]4)nn3)cc(=O)oc2c1C` was tested, and the MIC was 3.8 µM (≈ 1.59 µg/mL). `COc1ccc2c(Cn3cc(CSc4nc5ccccc5[nH]4)nn3)cc(=O)oc2c1` gave an MIC of 59.6 µM (≈ 25 µg/mL). `O=c1cc(Cn2cc(CSc3nc4ccccc4[nH]3)nn2)c2ccc(O)cc2o1` gave an MIC of 30.8 µM (≈ 12.5 µg/mL). In the case of `Cc1ccc2c(Cn3cc(CSc4nc5ccccc5[nH]4)nn3)cc(=O)oc2c1`, the MIC is reported as 7.7 µM (≈ 3.11 µg/mL). For `O=c1cc(Cn2cc(CSc3nc4ccccc4[nH]3)nn2)c2c(ccc3ccccc32)o1`, the MIC was 14.2 µM (≈ 6.24 µg/mL). Work on `O=C(O)c1cn(C2CC2)c2cc(N3CCNCC3)c(F)cc2c1=O` [CIPROFLOXACIN] yielded an MIC of 9.4 µM (≈ 3.11 µg/mL). Work on `NC(=O)c1cnccn1` [PYRAZINAMIDE] yielded an MIC of 25.3 µM (≈ 3.11 µg/mL). In the case of `CN[C@@H]1[C@H](O[C@H]2[C@H](O[C@H]3[C@H](O)[C@@H](O)[C@H](N=C(N)N)[C@@H](O)[C@@H]3N=C(N)N)O[C@@H](C)[C@]2(O)C=O)O[C@@H](CO)[C@H](O)[C@H]1O` [STREPTOMYCIN], the MIC is reported as 10.7 µM (≈ 6.22 µg/mL).

Source: ChEMBL document CHEMBL4428093, “One pot Click chemistry: A three component reaction for the synthesis of 2-mercaptobenzimidazole linked coumarinyl triazoles as anti-tubercular agents” (2016)
